From patent US20220079916A1, “USE OF GERANYLFLAVONE A IN PREPARATION OF DRUG FOR PROMOTING HEALING OF WOUNDS” (HANYI BIO-TECHNOLOGY COMPANY LTD., priority 2019, published 2022)

Experiments:
[1] = test system: whole cortex wound inoculated with Staphylococcus aureus, mice with type II diabetes; assay: Healing of skin wound infected with Staphylococcus aureus (2), comparison with flavonoid controls (Example 4); assay type: in vivo, mice (C57BL/6); conditions: 10 mg/mouse mixed with 5 mg vaseline, once a day
Source text: normal mice as control and mice with type II diabetes established according to the method of Example 1 were taken, anesthetized, and then subjected to backside unhairing to establish a whole cortex wound with a 6 mm biopsy puncher. The mice were inoculated with 1.5×10^6 CFU/ml of Staphylococcus aureus. […]
The experimental method was the same as that of Example 3, except that the grouping and administration were as follows:
A normal control group: no administration, 5 mice.
A type II diabetes control group administrated with vaseline: vaseline, 5 mg vaseline/mouse, 5 mice.
A type II diabetes group administrated with vaseline+a drug A: 10 mg/mouse, 10 mice (as a flavonoid control, and the drug A was soybean isoflavones).
A type II diabetes group administrated with vaseline+a drug B: 10 mg/mouse, 10 mice (as a flavonoid control, and the drug B was quercetin).
A type II diabetes group administrated with vaseline+cannflavin A: […], 10 mice.
The aforementioned 5 groups were all inoculated with Staphylococcus aureus according to the previous step (1).
(§1) The administration modes of the latter 4 groups were all application onto the wound, and the administration was conducted once a day. In the latter 3 groups, the drug A, the drug B or cannflavin A were respectively well mixed with 5 mg of vaseline as an ointment base and then administered.

[2] = test system: whole cortex wound of wild C57 adult male mice; assay: Experiment of skin wound healing (Example 2, wound without bacterial infection); assay type: in vivo, mice (C57BL/6); conditions: 10 mg/mouse mixed with 5 mg vaseline
Method: Wild C57 adult male mice (C57BL/6, purchased from Vital River) were taken and anesthetized, and then subjected to backside unhairing to establish a whole cortex wound with a 6 mm biopsy puncher. Attention should be paid to disinfection for preventing infection.
A normal control group: 5 mice, no administration.
A group administrated with vaseline: vaseline (vaseline for medical purpose, purchased from Tianjin Zhiyuan Chemical Reagent Co., Ltd., the same below), 5 mg vaseline/mouse, 5 mice.
A group administrated with A drug A: 10 mg/mouse, 10 mice (as a flavonoid control, and the drug A was soybean isoflavones).
A group administrated with a drug B: 10 mg/mouse, 10 mice (as a flavonoid control, and the drug B was quercetin).
as §1, with “A group administrated with cannflavin A: cannflavin A, 10 mg/mouse, 10 mice. The” for “The”, “Because vaseline was a commonly used ointment base^[8], in” for “In”, “vaseline” for “vaseline as an ointment base”
Photos were taken to record a wound healing condition of mice on days 0, 4 and 7 of administration, and the healing degree of a wound area was calculated by the PhotoShop software with 1 cm^2 as a scale. […]

In the case of `O=c1c(O)c(-c2ccc(O)c(O)c2)oc2cc(O)cc(O)c12` [drug B, quercetin, reference compound], the “help to wound healing” value [1] is reported as “could not help wound healing”, the “time in which the wound basically healed” value ([2]; applied onto the wound once a day, normal mice, no infection) is reported as “about 4 days” and the “promoting the healing degree of wounds without bacterial infection, compared among drugs, vaseline and control” value ([2]; once a day, days 0, 4 and 7) is reported as “no significant difference”.
